Measurements: US20090118135A1, “METHODS AND COMPOUNDS FOR REGULATING APOPTOSIS” (The Burnham Institute, priority 2007, published 2009)

target: T1, GST-Bfl-1 (Homo sapiens, UniProt Q16548); experiment: Bfl-1/FITC-Bid BH3 competitive fluorescence polarization assay; format: binding; conditions: primary HTS hits, MLSCN library (PubChem SIDs), Table 5B
T1 construct: lacking their C-terminal transmembrane domains (about the last 20 amino acids) (“ΔTM”); made in house; host or cells: XL-1 Blue E. coli, pGEX 4T-1
T1 sequence (Q16548 1-155 limits assumed): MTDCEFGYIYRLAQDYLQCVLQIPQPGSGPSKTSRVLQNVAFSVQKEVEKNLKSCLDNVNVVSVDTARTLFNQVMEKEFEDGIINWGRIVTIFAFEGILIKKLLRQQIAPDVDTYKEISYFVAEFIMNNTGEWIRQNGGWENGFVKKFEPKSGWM
Procedure: A FPA was performed to determine the binding affinity of FITC-Bid BH3 peptide to Bcl-2 proteins. […] IC50 determinations were performed using GraphPad Prism software (GraphPad, Inc., San Diego, Calif.). FPA competition assays were performed using the same procedure described above, except that 100 nM of GST-Bfl-1 protein in a volume of 45 μl was incubated with 5 μl (50 μM) test compounds in DMSO per well for 30 min prior to addition of 50 μl (5 nM) FITC-Bid BH3 peptide. The final DMSO concentration was 5% when the reactions brought to fall volume of 100 μl. Fluorescence polarization was measured after 10 min. Compounds that reduced the fluorescence polarization by 50% were considered hits.

| Structure (SMILES) | % Activity | FRatio |
| --- | --- | --- |
| CSc1nnc(-c2ccco2)c(-c2ccco2)n1 [Compound 859770] | 107% | 0.53 |
| Cc1nn2c(N)csc2nc1=O [Compound 846443] | 56.4% | 1.35 |
| O=C(NCCCN1CCN(Cc2ccccc2)CC1)C1CCN(c2nnc(-n3cccc3)s2)CC1 [Compound 4250401] | 50.8% | 0.86 |
| O=C(COC(=O)CN1C(=O)c2ccccc2C1=O)Nc1ncc(Cl)cc1Cl [Compound 3711621] | 58.7% | 1.36 |
| COc1ccc(NC(=O)c2cc(CN3C(=O)c4ccccc4C3=O)ccc2OC)cn1 [Compound 3713992] | 66.9% | 1.47 |
| Cc1ccc(OCCSc2nnc(-c3ccncc3)n2C)cc1 [Compound 3712590] | 68.9% | 0.91 |
| COC(=O)c1[nH]c2cccc(OC)c2c1NC(=O)CCN1CCC(C(N)=O)CC1 [Compound 863493] | 71.7% | 0.76 |
| O=C(Nc1ccc2nc(-c3ccco3)c(-c3ccco3)nc2c1)N1CCCCCC1 [Compound 4258795] | 83.2% | 0.96 |
| COCCn1c(SCC(=O)Nc2ncc(Cl)c(C)c2Cl)nc2ccccc21 [Compound 3717339] | 64.7% | 0.94 |
| COC(=O)c1ccccc1NC(=O)c1noc2c1CCC2 [Compound 4245926] | 72.8% | 0.46 |
| O=C(O)c1cccc(-n2cccc2/C=N/O)c1 [Compound 4243236] | 70% | 0.86 |
| CCn1c(SCC(=O)O)nc2sc3c(c2c1=O)CCC3 [Compound 856717] | 83% | 0.85 |
| Cc1c(C(=O)OCC2CCCO2)[nH]c2c1C(=O)CC(c1ccco1)C2 (stereo not shown) [Compound 4244684] | 54.3% | 0.79 |
| CCN1CCN(c2ccc(NC(=O)c3cccc4ncccc34)cc2)CC1 [Compound 842582] | 76.3% | 0.21 |
| CCOc1ccc(C(=O)Nc2ccc(N3CCN(C)CC3)cc2)cc1Br [Compound 4256635] | 70% | 0.53 |
| CN(C)c1ccc(NC(=O)CN2C(=O)CN=C(c3ccccc3)c3cc(Cl)ccc32)cc1 [Compound 14738707] | 66.4% | 0.84 |
| COc1ccc(NC(=O)C2CCN(c3nc(C)nc4c3CCC4)CC2)cc1 [Compound 852694] | 66.2% | 1.37 |
| Cc1cc(C)c(NC(=O)C2=CC3C(N=C4SC=CN43)S2)c(C)c1 (stereo not shown) [Compound 3712588] | 66.1% | 1.05 |
| FC(F)(F)c1cnc(Nc2ccc(N3CCOCC3)cc2)c(Cl)c1 [Compound 3713921] | 51.4% | 0.51 |
| O=C(CCN1CCc2ccccc21)c1ccc2c(c1)OCCO2 [Compound 857910] | 79.4% | 0.24 |
| CCS(=O)(=O)N1Cc2ccccc2CC1C(=O)N1CCN(c2cccc(C)c2C)CC1 (stereo not shown) [Compound 3712504] | 54.7% | 0.25 |
| COc1ccc(-c2nc3n(n2)C(c2cccnc2)C(C(N)=O)=C(C)N3)cc1 (stereo not shown) [Compound 4250160] | 88.5% | 0.81 |
| O=C(c1cnccn1)N1CCc2ccccc21 [Compound 3713383] | 80.1% | 0.72 |
| Clc1ccc2nc(CN3CCCc4ccccc43)cn2c1 [Compound 3711377] | 61.3% | 0.75 |
| CN(C)CCSc1nc(N)c2c3c(sc2n1)CN(C)CC3 [Compound 862887] | 72.8% | 0.98 |

Results, then the compound that gave them:

| % Activity | FRatio | Structure (SMILES) |
| --- | --- | --- |
| 69.6% | 1.46 | CCOc1ccc2nc(O)c(O)nc2c1 [Compound 4261310] |
| 69.5% | 0.94 | Cc1cc(-c2csc(N)n2)c(C)n1C [Compound 14746541] |
| 60.3% | 1.01 | O=C(COC(=O)c1ccc(S(=O)(=O)NCc2ccco2)cc1)NCC1CCCCC1 [Compound 16953469] |
| 111.5% | 0.39 | CC1=C(N2C(=O)c3ccc4c5c(ccc(c35)C2=O)CC4)C(C)N(c2ccccc2)N1C (stereo not shown) [Compound 7978392] |
| 86.8% | 0.87 | Brc1ccc2ncnc(Nc3ccc(N4CCOCC4)cc3)c2c1 [Compound 7975247] |
| 80.6% | 0.67 | Cc1ccc2cccc(S(=O)(=O)Nc3ccc4c(c3)OCO4)c2n1 [Compound 4262919] |
| 75.3% | 0.59 | COc1ccccc1-c1nnc2sc(-c3cnccn3)nn12 [Compound 4265558] |
| 59.5% | 0.97 | CC(=O)c1ccc(NC(=O)c2ccc3nc(-c4ccco4)c(-c4ccco4)nc3c2)cc1 [Compound 14740115] |
| 54.4% | 0.7 | Cc1nc(NC(=O)c2ccco2)sc1-c1csc(Nc2ccc(Cl)cc2Cl)n1 [Compound 17410012] |
| 51.8% | 1 | CCS(=O)(=O)NCc1ccc2c(c1)cc(C)n2C [Compound 14733498] |
| 76.6% | 0.76 | Cc1cc[n+]2c3c(cccc13)CCC2 [Compound 14748512] |
| 59.9% | 0.64 | COC(=O)c1cccc(NC(=O)CSc2nc(C)cc(O)n2)c1 [Compound 4262437] |
| 84.8% | 0.87 | O=C(N/N=C/c1ccc(F)cc1)c1cc(-c2ccco2)nc2ccccc12 [Compound 17408998] |
| 56.5% | 0.8 | Cc1ccc2c(Cl)cc(Cl)c(OCC(=O)NCc3ccco3)c2n1 [Compound 14747102] |
| 111.5% | 0.4 | CCOC(=O)c1ccc2c(c1)C1C=CCC1C(C(=O)O)N2 (stereo not shown) [Compound 4263567] |
| 50.9% | 1.19 | CCCC1=C(C(=O)OCC)C(c2cc(Cl)cc(OC)c2OCC(=O)OCC)NC(=O)N1 (stereo not shown) [Compound 4262430] |
| 83.7% | 0.97 | CC1CC(C)CN(C(=O)c2ccc3c(c2NCCO)C(=O)c2ccccc2C3=O)C1 (stereo not shown) [Compound 14734023] |
| 56.3% | 1.09 | Cc1ccccc1NC(=O)CSc1nnc(-c2ccco2)c(-c2ccco2)n1 [Compound 14742395] |
| 58.8% | 0.88 | COc1ccc(N2C(=O)c3cccc4cccc(c34)C2=O)nn1 [Compound 4265126] |

| % Activity | FRatio | Structure (SMILES) |
| --- | --- | --- |
| 61.4% | 0.83 | O=C(Nc1ccccc1N1CCOCC1)c1cc(-c2ccco2)nc2ccccc12 [Compound 14744733] |
| 66.9% | 1.02 | O=c1oc2c3c4c(cc2s1)CCCN4CCC3 [Compound 7978324] |
| 61.8% | 0.84 | CSc1nc2n(n1)C(c1ccccn1)C1=C(O)CC(C)(C)CC1=N2 (stereo not shown) [Compound 14742716] |
| 88.4% | 0.84 | O=C(Nc1cccnc1)c1ccc(S(=O)(=O)N2CCCCCC2)cc1 [Compound 14744015] |
| 54.7% | 0.6 | Cc1nc2ccc(C(=O)O)cc2c2c1CC(C)S2 (stereo not shown) [Compound 4259932] |
| 59.1% | 0.93 | O=C(Cc1ccccc1)Nc1ccc(N2CCCC2)cc1 [Compound 14739360] |
| 82.3% | 1.11 | COc1ccc(Nc2cc(C)nc3nc(C)nn23)cc1Cl [Compound 7967129] |
| 107% | 0.75 | O=[N+]([O-])c1cc(/C=N/Nc2nccs2)ccc1O [Compound 14746394] |
| 68.6% | 0.84 | O=C(N/N=C1\C(=O)c2cccc3cccc1c23)c1ccc(Cl)cc1 [Compound 16953557] |
| 60.5% | 0.99 | O=[N+]([O-])c1cc(-c2ccc(/C=N/c3nc4ccccn4c3-c3ccco3)o2)ccc1Cl [Compound 17388349] |
| 92.4% | 0.85 | CCC(=O)Nc1cccc(NC(C)=O)c1 [Compound 14746435] |
| 85.4% | 0.87 | O=C(Nc1ccccc1C(=O)O)c1ccccc1 [Compound 14723278] |
| 84.4% | 0.7 | N/C(=N\N=C\c1ccc(-c2ccc(O)c(C(=O)O)c2)o1)N[N+](=O)[O-] [Compound 17416093] |
| 68.2% | 0.76 | CCOc1cc(/C=C2\C(=O)N(c3nc(-c4ccc(Br)cc4)cs3)N=C2c2ccccc2)ccc1O [Compound 14733887] |
| 74.1% | 0.8 | CCn1c(CSc2nc3ccccc3s2)nnc1SCC(=O)c1ccc(O)c(O)c1 [Compound 17388455] |
| 50.6% | 0.73 | CC(=O)Nc1ccc(S(=O)(=O)/N=C2/C(=O)c3ccccc3C(O)=C2N2CCN(Cc3ccccc3)CC2)cc1 [Compound 14742166] |
| 80% | 0.77 | Cc1ccc(C)n1-c1sccc1C(=O)O [Compound 14729511] |
| 54.8% | 0.92 | CCCCNC(=O)COC(=O)c1ccc(Cl)c(S(=O)(=O)N2CCCC2)c1 [Compound 16952426] |
